Assay results from patent US6995167B2 (priority 1999, dated 2006).

Target: α7 nAChR subtype (Rattus norvegicus, UniProt Q05941)
Format: binding
Details: read-out: KD of radioligand

Sequence of α7 nAChR subtype (Q05941 23-502 limits assumed): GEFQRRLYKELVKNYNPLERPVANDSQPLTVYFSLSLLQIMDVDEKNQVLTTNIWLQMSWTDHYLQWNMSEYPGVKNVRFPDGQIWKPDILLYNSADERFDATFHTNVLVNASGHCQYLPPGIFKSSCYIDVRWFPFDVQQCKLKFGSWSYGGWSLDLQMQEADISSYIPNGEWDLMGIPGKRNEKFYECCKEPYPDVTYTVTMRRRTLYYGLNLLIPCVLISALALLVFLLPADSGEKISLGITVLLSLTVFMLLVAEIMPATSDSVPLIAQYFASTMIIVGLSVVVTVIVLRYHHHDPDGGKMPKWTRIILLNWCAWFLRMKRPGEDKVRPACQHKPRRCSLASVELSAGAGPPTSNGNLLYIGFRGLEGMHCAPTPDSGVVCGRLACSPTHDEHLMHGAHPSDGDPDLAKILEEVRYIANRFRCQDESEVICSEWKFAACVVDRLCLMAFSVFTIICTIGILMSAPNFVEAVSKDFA

Substance: ^125I-α-Bungarotoxin [^125I-α-BTX]
- Kd: 1.67 nM
